Broadly, the IC50 is the concentration that gives 50% inhibition. Usually viability, T/C stands for the ratio of treated to control.

This experiment has as its system 292921-168-R-J2-PDC spheroids with HUVEC/MSC, viability. Description: Anticancer human tumor 292921-168-R-J2-PDC patient-derived pancreatic carcinoma cell line growth inhibition [TAK]. As to conditions: for viability, T/C: stronger effect = lower value. The text has this:
Combinatorial screen of targeted agents with TAK-243 and ipatasertib in multi-cell type tumor spheroids
A high-throughput screen of multi-cell type tumor spheroids was designed to identify active combinations of targeted small molecules and TAK-243 or ipatasertib. Complex spheroids include a stromal component modeled by human endothelial cells (HUVEC) and fibroblasts modeled by human mesenchymal stem cells (MSCs). The concentration ranges selected for each drug and investigational agent were based upon clinically achievable concentrations if the clinical Cmax of the agent was known.
Compounds. The drugs and investigational agents: TAK-243 (785004), ipatasertib (767898), everolimus (733504), selumetinib (741078), bortezomib (756655), trametinib (758246), ixazomib (758254), vemurafenib (761431), dabrafenib (764134), sapanisertib (764658), alpelisib (765974), and copanlisib (816437), were obtained from the National Cancer Institute (NCI) Developmental Therapeutics Program Chemical Repository. The FDA-approved anticancer drug set is available from the NCI Developmental Therapeutics Program. […] The stock solutions were prepared in dimethyl sulfoxide (DMSO, Sigma-Aldrich, St. Louis, MO, cat. D2650) at 800-fold the tested concentration and stored at -70 degrees C prior to their use. All drugs and investigational agents were tested over a range starting from a high concentration at or near the clinical Cmax and decreasing in half-log increments. If the clinical Cmax for an agent had not been determined, the highest concentration tested was 10 microM.
NCI60 Cell Culture. NCI60 cell lines were obtained from the NCI Developmental Therapeutics Program Tumor Repository. For each lot of cells, the Repository performed Applied Biosystems AmpFLSTR Identifiler testing with PCR amplification to confirm consistency with the published Identifier STR profile for each cell line. Cells were kept in continuous culture for no more than 20 passages. The optimal seeding densities for each of the cell lines at each time point assessed were determined prior to performing the concentration response studies. Briefly, the NCI60 human tumor lines were grown as monolayers in RPMI 1640 medium supplemented with 10% FBS and 2 mmol/L L-glutamine.
An additional 2 lines were from the NCI60 cell line panel including melanomas, MALME-3M and SK-MEL-2. Pooled donor human umbilical vein endothelial cells (HUVEC, Lonza, cat. CC-2519) and human mesenchymal stem cells (hMSC, Lonza, cat. PT-2501) were purchased from Lonza (Walkersville, MD).
PDMR cell lines were grown in complete medium (DC medium): Dulbecco's modified Eagle's medium (DMEM)/F12 supplemented with 5% fetal bovine serum (FBS), 2 mM L-glutamine, 100 U/mL penicillin and 100 µg/ml streptomycin, 0.4 µg/ml hydrocortisone, 10 ng/ml epidermal growth factor (EGF) recombinant human protein, 24 µg/mL adenine, and 0.1 mg/mL primocin. During culture from frozen stock vials, PDMR cells were cultured in the same medium containing 10 µM Y-27632 (see Table 3). The PDCs were cultured in complete DMEM/F12 media without 10 microM Y-27632 dihydrochloride for at least two passages prior to the screen. The pooled donor HUVEC and hMSC were cultured in endothelial cell growth medium 2 (PromoCell, Heidelberg, Germany, cat. C-22011) and mesenchymal stem cell growth medium 2 (PromoCell, cat. C-28009), respectively. For all experiments, HUVEC and hMSC were used at passages </=5.
For the pre-screen, cell seeding densities were determined from a titration spanning the range from 5,000 to 313 cells per well. The mct-spheroids including 60% malignant cells, 25% HUVEC and 15% MSC dispensed as a mixture into U-bottom Ultra-Low Attachment 384-well plates (Corning, NY)
High-throughput Drug Combination Screening.
Prior to their inoculation into 384-well plates, malignant cells, HUVEC, and hMSC were removed from T flasks using TrypLE express (Thermo Fisher Scientific, cat. 12605036) and harvested by centrifugation for 5 min at 233 x g. […]

[1] abbreviates: curve of first compound, second compound 0.3 µM.
Setting [2] is: curve of first compound, second compound 0.949 µM.
[3] abbreviates: curve of first compound, second compound 3 µM.
Setting [4] is: curve of first compound, second compound 9.49 µM.
Setting [5] is: curve of first compound, second compound 30 µM.
[6] abbreviates: second compound 0.3 µM, first compound 0.0316 µM.
Where [7] appears, read: second compound 0.3 µM, first compound 0.1 µM.
The mark [8] stands for this setting: second compound 0.949 µM, first compound 0.0316 µM.
The mark [9] stands for this setting: second compound 0.949 µM, first compound 0.1 µM.
Where [10] appears, read: second compound 3 µM, first compound 0.0316 µM.
The mark [11] stands for this setting: second compound 3 µM, first compound 0.1 µM.
The mark [12] stands for this setting: second compound 9.49 µM, first compound 0.0316 µM.
Where [13] appears, read: second compound 9.49 µM, first compound 0.1 µM.
The mark [14] stands for this setting: second compound 30 µM, first compound 0.0316 µM.
Setting [15] is: second compound 30 µM, first compound 0.1 µM.

Each structure is given as a SMILES string. “And” between values parts separate entries of the source, which are not always exact repeats. Equal entries are not always repeated.
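Note: spheroids exposed to drugs for seven days before readout.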

Turning to `Cc1nc(NC(=O)N2CCCC2C(N)=O)sc1-c1ccnc(C(C)(C)C(F)(F)F)c1` (stereo not given) + CC(C)NCC(C(=O)N1CCN(c2ncnc3c2C(C)CC3O)CC1)c1ccc(Cl)cc1, the 50% inhibitory concentration (IC50) reads like this: under setting [1], 295 nM; under setting [2], 185 nM; under setting [3], 184 nM; under setting [4], 70.8 nM; under setting [5], below 31.6 nM. Further, the viability, T/C by setting is: under setting [6], 75.5%; under setting [7], 67.2%; (second compound 0.3 µM, first compound 0.316 µM) 47.2%; (second compound 0.3 µM, first compound 1 µM) 34.2%; (second compound 0.3 µM, first compound 3.16 µM) 26.2%; (second compound 0.3 µM, first compound 10 µM) 20%. For the same compound, the viability, T/C under setting [8] is 78.5%; the viability, T/C under setting [9] was 58.4%; the viability, T/C (second compound 0.949 µM, first compound 0.316 µM) was 42.8%; the viability, T/C (second compound 0.949 µM, first compound 1 µM) was 30.5%; the viability, T/C (second compound 0.949 µM, first compound 3.16 µM) is 24.1%; the viability, T/C (second compound 0.949 µM, first compound 10 µM) was 19.6%. The viability, T/C under setting [10] is 68.5%; the viability, T/C under setting [11] is 61.7%; the viability, T/C (second compound 3 µM, first compound 0.316 µM) is 39.3%; the viability, T/C (second compound 3 µM, first compound 1 µM) is 27.1%; the viability, T/C (second compound 3 µM, first compound 3.16 µM) was 23.4%; the viability, T/C (second compound 3 µM, first compound 10 µM) is 15.3%. Besides, the viability, T/C is 59.8% under setting [12]; 46.8% under setting [13]; 27.8% (second compound 9.49 µM, first compound 0.316 µM); 21.1% (second compound 9.49 µM, first compound 1 µM); 17.8% (second compound 9.49 µM, first compound 3.16 µM); 12.7% (second compound 9.49 µM, first compound 10 µM). The viability, T/C is, setting by setting: under setting [14], 41.1%; under setting [15], 33.2%; (second compound 30 µM, first compound 0.316 µM) 23.9%; (second compound 30 µM, first compound 1 µM) 16.4%; (second compound 30 µM, first compound 3.16 µM) 13.4%; (second compound 30 µM, first compound 10 µM) 9.1%.
Regarding `CC(C)n1nc(-c2ccc3oc(N)nc3c2)c2c(N)ncnc21` + CC(C)NCC(C(=O)N1CCN(c2ncnc3c2C(C)CC3O)CC1)c1ccc(Cl)cc1, the IC50 was 9.58 nM under setting [1]; 8.57 nM under setting [2]; 6.94 nM under setting [3]; 2.52 nM under setting [4]; below 0.316 nM under setting [5]. Also, the viability, T/C runs as follows: (second compound 0.3 µM, first compound 0.000316 µM) 81%; (second compound 0.3 µM, first compound 0.001 µM) 77.2%; (second compound 0.3 µM, first compound 0.00316 µM) 67.4%; (second compound 0.3 µM, first compound 0.01 µM) 49.9%; under setting [6], 35.3%; under setting [7], 32.2%. The viability, T/C is 81.6% (second compound 0.949 µM, first compound 0.000316 µM); 70.9% (second compound 0.949 µM, first compound 0.001 µM); 63.7% (second compound 0.949 µM, first compound 0.00316 µM); 48.9% (second compound 0.949 µM, first compound 0.01 µM); 35% under setting [8]; 32.2% under setting [9]. The viability, T/C runs as follows: (second compound 3 µM, first compound 0.000316 µM) 73.6%; (second compound 3 µM, first compound 0.001 µM) 73%; (second compound 3 µM, first compound 0.00316 µM) 62.2%; (second compound 3 µM, first compound 0.01 µM) 43.8%; under setting [10], 34.2%; under setting [11], 29%. The viability, T/C by setting is: (second compound 9.49 µM, first compound 0.000316 µM) 63.7%; (second compound 9.49 µM, first compound 0.001 µM) 57%; (second compound 9.49 µM, first compound 0.00316 µM) 48.3%; (second compound 9.49 µM, first compound 0.01 µM) 37.8%; under setting [12], 27.6%; under setting [13], 26.3%. In addition, the viability, T/C was 43.4% (second compound 30 µM, first compound 0.000316 µM); 39.7% (second compound 30 µM, first compound 0.001 µM); 33.7% (second compound 30 µM, first compound 0.00316 µM); 26.4% (second compound 30 µM, first compound 0.01 µM); 23.9% under setting [14]; 21.7% under setting [15].
With `CC(C)NCC(C(=O)N1CCN(c2ncnc3c2C(C)CC3O)CC1)c1ccc(Cl)cc1` (stereo not given), the viability, T/C is, setting by setting: (compound 0.3 µM) 87.8% [middle of 10 runs]; (compound 0.949 µM) 83% [middle of 10 runs]; (compound 3 µM) 77.3% [middle of 10 runs]; (compound 9.49 µM) 62.3% [middle of 10 runs]; (compound 30 µM) 42.4% [middle of 10 runs]. Further, the IC50 (compound alone, run of 02/20/2020) stood at 18800 nM.
For `CCCS(=O)(=O)Nc1ccc(F)c(C(=O)c2c[nH]c3ncc(-c4ccc(Cl)cc4)cc23)c1F`, the viability, T/C runs as follows: (compound 0.316 µM) 113% and 128%; (compound 1 µM) 117% and 127%; (compound 3.16 µM) 108% and 113%; (compound 10 µM) 55.1% and 67.5%; (compound 31.6 µM) 99.6% and 62.3%; (compound 100 µM) 80% and 94.5%. Also, for the setting “curve of compound”, the IC50 is above 100000 nM.
In the case of `CC(=O)Nc1cccc(-n2c(=O)n(C3CC3)c(=O)c3c(Nc4ccc(I)cc4F)n(C)c(=O)c(C)c32)c1`, the viability, T/C is 91.6% and 97.1% (compound 94.9 pM); 58.9% and 67.7% (compound 0.0003 µM); 36.9% and 48.5% (compound 0.000949 µM); 25.6% and 25.7% (compound 0.003 µM); 17.6% and 20.3% (compound 0.00949 µM); 11.1% (compound 0.03 µM). The half-inhibitory concentration (IC50) (curve of compound) was 0.49 nM and 0.767 nM.
